Experimental data as given in ChEMBL document CHEMBL4308841, “Synthesis, in vitro antiproliferative activity, and kinase inhibitory effects of pyrazole-containing diarylureas and diarylamides” (Eur J Med Chem, 2018).

How the values were obtained:
[1] = test system: BT-549; assay: Growth inhibition of human BT549 cells assessed as cell growth at 10 uM incubated for 48 hrs by sulforhodamine B assay relative to control; type: functional; settings: BT-549, 48 h, read-out: Activity
[2] = test system: RPMI-8226; assay: Growth inhibition of human RPMI8226 cells assessed as cell growth at 0.1 uM incubated for 48 hrs by sulforhodamine B assay relative to control; type: functional; settings: RPMI-8226, 48 h, read-out: Activity
[3] = test system: 786-0; assay: Growth inhibition of human 786-0 cells assessed as cell growth at 1 uM incubated for 48 hrs by sulforhodamine B assay relative to control; type: functional; settings: 786-0, 48 h, read-out: Activity
[4] = test system: HCT-15; assay: Growth inhibition of human HCT15 cells assessed as cell growth at 10 uM incubated for 48 hrs by sulforhodamine B assay relative to control; type: functional; settings: HCT-15, 48 h, read-out: Activity
[5] = test system: MDA-MB-435; assay: Growth inhibition of human MDA-MB-435 cells assessed as cell growth at 10 uM incubated for 48 hrs by sulforhodamine B assay relative to control; type: functional; settings: MDA-MB-435, 48 h, read-out: Activity
[6] = test system: HCT-116; assay: Growth inhibition of human HCT116 cells assessed as cell growth at 0.01 uM incubated for 48 hrs by sulforhodamine B assay relative to control; type: functional; settings: HCT-116, 48 h, read-out: Activity
[7] = test system: MOLT-4; assay: Growth inhibition of human MOLT4 cells assessed as cell growth at 10 uM incubated for 48 hrs by sulforhodamine B assay relative to control; type: functional; settings: MOLT-4, 48 h, read-out: Activity
[8] = test system: UO-31; assay: Growth inhibition of human UO31 cells assessed as cell growth at 100 uM incubated for 48 hrs by sulforhodamine B assay relative to control; type: functional; settings: UO-31, 48 h, read-out: Activity
[9] = test system: SF-539; assay: Growth inhibition of human SF539 cells assessed as cell growth at 100 uM incubated for 48 hrs by sulforhodamine B assay relative to control; type: functional; settings: SF-539, 48 h, read-out: Activity
[10] = test system: OVCAR-5; assay: Growth inhibition of human OVCAR5 cells assessed as cell growth at 10 uM incubated for 48 hrs by sulforhodamine B assay relative to control; type: functional; settings: OVCAR-5, 48 h, read-out: Activity
[11] = test system: DU-145; assay: Growth inhibition of human DU145 cells assessed as cell growth at 0.1 uM incubated for 48 hrs by sulforhodamine B assay relative to control; type: functional; settings: DU-145, 48 h, read-out: Activity
[12] = test system: U-251; assay: Growth inhibition of human U251 cells assessed as cell growth at 10 uM incubated for 48 hrs by sulforhodamine B assay relative to control; type: functional; settings: U-251, 48 h, read-out: Activity
[13] = test system: HCC 2998; assay: Growth inhibition of human HCC2998 cells assessed as cell growth at 10 uM incubated for 48 hrs by sulforhodamine B assay relative to control; type: functional; settings: HCC 2998, 48 h, read-out: Activity
[14] = test system: CAKI-1; assay: Growth inhibition of human Caki1 cells assessed as cell growth at 10 uM incubated for 48 hrs by sulforhodamine B assay relative to control; type: functional; settings: CAKI-1, 48 h, read-out: Activity
[15] = test system: IGROV-1; assay: Growth inhibition of human IGROV1 cells assessed as cell growth at 10 uM incubated for 48 hrs by sulforhodamine B assay relative to control; type: functional; settings: IGROV-1, 48 h, read-out: Activity
[16] = test system: UACC-62; assay: Growth inhibition of human UACC62 cells assessed as cell growth at 10 uM incubated for 48 hrs by sulforhodamine B assay relative to control; type: functional; settings: UACC-62, 48 h, read-out: Activity
[17] = test system: Malme-3M; assay: Growth inhibition of human MALME-3M cells assessed as cell growth at 10 uM incubated for 48 hrs by sulforhodamine B assay relative to control; type: functional; settings: read-out: Activity
[18] = test system: SW-620; assay: Growth inhibition of human SW620 cells assessed as cell growth at 0.01 uM incubated for 48 hrs by sulforhodamine B assay relative to control; type: functional; settings: SW-620, 48 h, read-out: Activity
[19] = test system: T47D; assay: Growth inhibition of human T47D cells assessed as cell growth at 10 uM incubated for 48 hrs by sulforhodamine B assay relative to control; type: functional; settings: read-out: Activity
[20] = test system: SF-295; assay: Growth inhibition of human SF295 cells assessed as cell growth at 10 uM incubated for 48 hrs by sulforhodamine B assay relative to control; type: functional; settings: SF-295, 48 h, read-out: Activity
[21] = test system: NCI-H23; assay: Growth inhibition of human NCI-H23 cells assessed as cell growth at 0.1 uM incubated for 48 hrs by sulforhodamine B assay relative to control; type: functional; settings: NCI-H23, 48 h, read-out: Activity
[22] = test system: SW-620; assay: Growth inhibition of human SW620 cells assessed as cell growth at 1 uM incubated for 48 hrs by sulforhodamine B assay relative to control; type: functional; settings: SW-620, 48 h, read-out: Activity
[23] = test system: UACC-257; assay: Growth inhibition of human UACC257 cells assessed as cell growth at 10 uM incubated for 48 hrs by sulforhodamine B assay relative to control; type: functional; settings: UACC-257, 48 h, read-out: Activity
[24] = test system: MDA-MB-468; assay: Growth inhibition of human MDA-MB-468 cells assessed as cell growth at 100 uM incubated for 48 hrs by sulforhodamine B assay relative to control; type: functional; settings: MDA-MB-468, 48 h, read-out: Activity
[25] = test system: K562; assay: Growth inhibition of human K562 cells assessed as cell growth at 10 uM incubated for 48 hrs by sulforhodamine B assay relative to control; type: functional; settings: K562, 48 h, read-out: Activity
[26] = test system: SK-MEL-5; assay: Growth inhibition of human SK-MEL-5 cells assessed as cell growth at 10 uM incubated for 48 hrs by sulforhodamine B assay relative to control; type: functional; settings: SK-MEL-5, 48 h, read-out: Activity
[27] = test system: NCI-H322M; assay: Growth inhibition of human NCI-H322M cells assessed as cell growth at 10 uM incubated for 48 hrs by sulforhodamine B assay relative to control; type: functional; settings: read-out: Activity
[28] = test system: Hs-578T; assay: Growth inhibition of human Hs578T cells incubated for 48 hrs by sulforhodamine B assay; type: functional, cell-based
[29] = test system: MDA-MB-468; assay: Growth inhibition of human MDA-MB-468 cells assessed as cell growth at 10 uM incubated for 48 hrs by sulforhodamine B assay relative to control; type: functional; settings: MDA-MB-468, 48 h, read-out: Activity
[30] = test system: CCRF-CEM; assay: Growth inhibition of human CCRF-CEM cells assessed as cell growth at 10 uM incubated for 48 hrs by sulforhodamine B assay relative to control; type: functional; settings: read-out: Activity
[31] = test system: COLO 205; assay: Growth inhibition of human COLO205 cells assessed as cell growth at 10 uM incubated for 48 hrs by sulforhodamine B assay relative to control; type: functional; settings: COLO 205, 48 h, read-out: Activity
[32] = test system: NCI-H226; assay: Growth inhibition of human NCI-H226 cells assessed as cell growth at 10 uM incubated for 48 hrs by sulforhodamine B assay relative to control; type: functional; settings: NCI-H226, 48 h, read-out: Activity

`O=C(Nc1cccc(-n2cc(-c3ccncc3)c(-c3cc(O)cc(Cl)c3)n2)c1)c1ccc(N2CCOCC2)c(C(F)(F)F)c1` was tested, and the growth at 10 µM [1] was 52.2%, the growth at 0.1 µM [2] was 100% and the growth at 1 µM [3] was 77%. The growth at 10 µM [4] was 6.25%, the growth at 10 µM [5] was 23% and the growth at 0.01 µM [6] was 102%. The growth at 10 µM [7] was -29.7%, the growth at 100 µM [8] was -33% and the growth at 100 µM [9] was -50%. For the same compound, the growth at 10 µM [10] was 81.4%, the growth at 0.1 µM [11] was 108% and the growth at 10 µM [12] was -9.64%. For the same compound, the growth at 10 µM [13] was -3.65%, the growth at 10 µM [14] was 14.8% and the growth at 10 µM [15] was 44.3%. It also gave a growth at 10 µM [16] of 10.8%, a growth at 10 µM [17] of -26.9% and a growth at 0.01 µM [18] of 103%. It also gave a growth at 10 µM [19] of 29.3%, a growth at 10 µM [20] of -35.4% and a growth at 0.1 µM [21] of 104%. It also gave a growth at 1 µM [22] of 107%, a growth at 10 µM [23] of 9.38% and a growth at 100 µM [24] of -15%. For the same compound, the growth at 10 µM [25] was -15.5%, the growth at 10 µM [26] was 32.2% and the growth at 10 µM [27] was 43.5%. It also gave a GI50 ([28]; read-out: GI50) of 2.94 µM, a CC50 ([28]; read-out: LC50 (the source's name)) greater than 100 µM and a TGI ([28]; read-out: TGI) greater than 100 µM. For the same compound, the GI50 ([28]; read-out: pGI50 (converted)) was 2.95 µM, the CC50 ([28]; read-out: pLC50 (the source's name) (converted)) was greater than 100 µM and the TGI ([28]; read-out: pTGI (converted)) was greater than 100 µM. It also gave a growth at 10 µM [29] of 26%, a growth at 10 µM [30] of 13.1% and a growth at 10 µM [31] of 80.5%. It also gave a growth at 10 µM [32] of 94.7%.
